Where “and” joins values, the source holds several entries; their conditions need not be identical. Identical values can stand only once. Inconclusive results and toxic doses are left out. Cut-off read from the data, not from the text of the source: active = T/C of 150% or more; inactive = T/C below 125%.
Tested on: L1210 leukemia ip in BDF1 mice, survival T/C
Experiment: NCI In Vivo Anticancer Drug Screen. Data for tumor model L1210 Leukemia (intraperitoneal) in B6D2F1 (BDF1) mice
Details: endpoint: mean survival time, higher = longer survival
Summary of the method: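 Each compound was tested against a transplantable tumor grown in mice. The endpoint was survival, with treated animals benchmarked against vehicle controls as a simple ratio.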

[1] = dose: 100.0 mg/kg/injection, schedule: Q04DX002 (ip), vehicle: Klucel (hydroxypropylcellulose) (HPC)
[2] = dose: 200.0 mg/kg/injection, schedule: Q04DX002 (ip), vehicle: Klucel (hydroxypropylcellulose) (HPC)
[3] = dose: 100.0 mg/kg/injection, schedule: Q01DX001 (ip), vehicle: Klucel (hydroxypropylcellulose) (HPC)
[4] = dose: 200.0 mg/kg/injection, schedule: Q01DX001 (ip), vehicle: Klucel (hydroxypropylcellulose) (HPC)
[5] = dose: 12.5 mg/kg/injection, schedule: Q04DX003 (ip), vehicle: saline with Tween-80
[6] = dose: 25.0 mg/kg/injection, schedule: Q04DX003 (ip), vehicle: saline with Tween-80
[7] = dose: 100.0 mg/kg/injection, schedule: Q04DX003 (ip), vehicle: Klucel (hydroxypropylcellulose) (HPC)
[8] = dose: 200.0 mg/kg/injection, schedule: Q04DX003 (ip), vehicle: Klucel (hydroxypropylcellulose) (HPC)
[9] = dose: 400.0 mg/kg/injection, schedule: Q04DX003 (ip), vehicle: Klucel (hydroxypropylcellulose) (HPC)
[10] = dose: 50.0 mg/kg/injection, schedule: Q01DX009 (ip), vehicle: Klucel (hydroxypropylcellulose) (HPC)
[11] = dose: 100.0 mg/kg/injection, schedule: Q01DX009 (ip), vehicle: Klucel (hydroxypropylcellulose) (HPC)
[12] = dose: 200.0 mg/kg/injection, schedule: Q01DX009 (ip), vehicle: Klucel (hydroxypropylcellulose) (HPC)
[13] = dose: 12.5 mg/kg/injection, schedule: Q01DX009 (ip), vehicle: Klucel (hydroxypropylcellulose) (HPC)
[14] = dose: 12.5 mg/kg/injection, schedule: Q04DX003 (ip), vehicle: Klucel (hydroxypropylcellulose) (HPC)
[15] = dose: 25.0 mg/kg/injection, schedule: Q04DX003 (ip), vehicle: Klucel (hydroxypropylcellulose) (HPC)
[16] = dose: 100.0 mg/kg/injection, schedule: Q01DX001 (ip), vehicle: saline
[17] = dose: 200.0 mg/kg/injection, schedule: Q01DX001 (ip), vehicle: saline

Measured: T/C

C=CC[n+]1ccccc1Cc1ccccc1
inactive: dose: 6.25 mg/kg/injection, schedule: Q01DX009 (ip), vehicle: saline 100 % of control | dose: 12.5 mg/kg/injection, schedule: Q01DX009 (ip), vehicle: saline 108 % of control | dose: 12.5 mg/kg/injection, schedule: Q04DX003 (ip), vehicle: saline 104 % of control | dose: 25.0 mg/kg/injection, schedule: Q01DX009 (ip), vehicle: saline 103 % of control | dose: 25.0 mg/kg/injection, schedule: Q04DX003 (ip), vehicle: saline 107 % of control

CCCCCCCCCCCCCCCCCCNC(=O)NCCN(C)c1ccccc1
inactive: dose: 100.0 mg/kg/injection, schedule: Q01DX009 (ip), vehicle: carboxymethylcellulose (CMC) 87 % of control and 91 % of control | [1] 108 % of control | dose: 100.0 mg/kg/injection, schedule: Q04DX002 (ip), vehicle: carboxymethylcellulose (CMC) 95 % of control and 97 % of control | dose: 100.0 mg/kg/injection, schedule: Q04DX003 (ip), vehicle: carboxymethylcellulose (CMC) 95 % of control | dose: 200.0 mg/kg/injection, schedule: Q01DX009 (ip), vehicle: carboxymethylcellulose (CMC) 90 % of control | [2] 112 % of control | dose: 200.0 mg/kg/injection, schedule: Q04DX002 (ip), vehicle: carboxymethylcellulose (CMC) 93 % of control and 95 % of control | dose: 200.0 mg/kg/injection, schedule: Q04DX003 (ip), vehicle: carboxymethylcellulose (CMC) 104 % of control | dose: 400.0 mg/kg/injection, schedule: Q04DX002 (ip), vehicle: Klucel (hydroxypropylcellulose) (HPC) 102 % of control | dose: 400.0 mg/kg/injection, schedule: Q04DX002 (ip), vehicle: carboxymethylcellulose (CMC) 95 % of control and 90 % of control | dose: 400.0 mg/kg/injection, schedule: Q04DX003 (ip), vehicle: carboxymethylcellulose (CMC) 86 % of control

COc1ccc(-n2c(=O)c(N=Nc3ccccc3OC)c(O)n(-c3ccccc3C)c2=S)cc1
inactive: [3] 98 % of control | [4] 101 % of control

O=C(O)CCC(=O)O.[Ag]
inactive: [5] 93 % of control | dose: 25.0 mg/kg/injection, schedule: Q01DX009 (ip), vehicle: acetone 86 % of control | [6] 95 % of control

CCc1nc2ccc(N=Cc3ccc(N(CCCl)CCCl)cc3C)cc2[nH]1
inactive: [7] 101 % of control | [8] 98 % of control | [9] 101 % of control

CC1NC1C (stereo not drawn)
inactive: dose: 45.0 mg/kg/injection, schedule: Q04DX003 (ip), vehicle: saline 102 % of control | dose: 90.0 mg/kg/injection, schedule: Q04DX003 (ip), vehicle: saline 98 % of control | dose: 100.0 mg/kg/injection, schedule: Q01DX009 (ip), vehicle: saline 103 % of control | dose: 100.0 mg/kg/injection, schedule: Q04DX003 (ip), vehicle: saline 108 % of control | dose: 180.0 mg/kg/injection, schedule: Q04DX003 (ip), vehicle: saline 107 % of control | dose: 200.0 mg/kg/injection, schedule: Q01DX009 (ip), vehicle: saline 108 % of control | dose: 200.0 mg/kg/injection, schedule: Q04DX003 (ip), vehicle: saline 114 % of control | dose: 400.0 mg/kg/injection, schedule: Q01DX009 (ip), vehicle: saline 103 % of control | dose: 400.0 mg/kg/injection, schedule: Q04DX003 (ip), vehicle: saline 119 % of control

CC1(C)CN1P(=O)(Oc1ccc([N+](=O)[O-])cc1)N1CC1(C)C (stereo not drawn)
inactive: [1] 110 % of control | [2] 108 % of control

CC(C(=O)c1ccc(Cl)cc1)C(O)(C(F)(F)F)C(F)(F)F (stereo not drawn)
inactive: [10] 104 % of control | [11] 104 % of control | [7] 103 % of control | [12] 108 % of control | [8] 101 % of control | [9] 103 % of control

O=c1ncccn1Cc1ccccc1
inactive: [3] 112 % of control | [4] 98 % of control | dose: 400.0 mg/kg/injection, schedule: Q01DX001 (ip), vehicle: Klucel (hydroxypropylcellulose) (HPC) 107 % of control

CC(=O)c1cccc2c1cc(Cl)c1ccccc12
inactive: dose: 55.0 mg/kg/injection, schedule: Q01DX Z (ip), vehicle: methylcellulose (MC) 100 % of control | dose: 83.0 mg/kg/injection, schedule: Q01DX Z (ip), vehicle: methylcellulose (MC) 93 % of control | dose: 125.0 mg/kg/injection, schedule: Q01DX Z (ip), vehicle: methylcellulose (MC) 93 % of control

O=C(CCCN1CCC2(CC1)C(=O)NCN2c1ccccc1)c1ccccc1
inactive: dose: 10.0 mg/kg/injection, schedule: Q04DX003 (ip), vehicle: Klucel (hydroxypropylcellulose) (HPC) 96 % of control | dose: 20.0 mg/kg/injection, schedule: Q04DX003 (ip), vehicle: Klucel (hydroxypropylcellulose) (HPC) 98 % of control | dose: 40.0 mg/kg/injection, schedule: Q04DX003 (ip), vehicle: Klucel (hydroxypropylcellulose) (HPC) 101 % of control

CC1(C)N=C(N)N=C(N)N1c1ccc(CCc2ccccc2)cc1
inactive: [13] 97 % of control | [14] 98 % of control | [5] 101 % of control | dose: 25.0 mg/kg/injection, schedule: Q01DX009 (ip), vehicle: Klucel (hydroxypropylcellulose) (HPC) 93 % of control | [15] 104 % of control | [6] 102 % of control | dose: 50.0 mg/kg/injection, schedule: Q04DX003 (ip), vehicle: Klucel (hydroxypropylcellulose) (HPC) 93 % of control | dose: 50.0 mg/kg/injection, schedule: Q04DX003 (ip), vehicle: saline with Tween-80 104 % of control

CCOC(=O)c1cc(OCC)c2c(ccc3cc(OC)ccc32)n1
inactive: [11] 96 % of control | [12] 94 % of control | dose: 400.0 mg/kg/injection, schedule: Q01DX009 (ip), vehicle: Klucel (hydroxypropylcellulose) (HPC) 93 % of control

COC1CCC(/C(C#N)=C/C2CCC3OCOC3C2)CC1 (stereo not drawn)
inactive: dose: 100.0 mg/kg/injection, schedule: Q04DX002 (ip), vehicle: saline with Tween-80 101 % of control | dose: 200.0 mg/kg/injection, schedule: Q04DX002 (ip), vehicle: saline with Tween-80 90 % of control | dose: 400.0 mg/kg/injection, schedule: Q04DX002 (ip), vehicle: saline with Tween-80 94 % of control

COc1ccc(/C=N/n2c(=O)[nH]nc(C)c2=O)c(OC)c1OC
inactive: dose: 100.0 mg/kg/injection, schedule: Q01DX009 (ip), vehicle: acetone 96 % of control | dose: 100.0 mg/kg/injection, schedule: Q04DX003 (ip), vehicle: saline with Tween-80 112 % of control | dose: 200.0 mg/kg/injection, schedule: Q01DX009 (ip), vehicle: acetone 93 % of control | dose: 200.0 mg/kg/injection, schedule: Q04DX003 (ip), vehicle: saline with Tween-80 117 % of control | dose: 400.0 mg/kg/injection, schedule: Q01DX009 (ip), vehicle: acetone 102 % of control | dose: 400.0 mg/kg/injection, schedule: Q04DX003 (ip), vehicle: saline with Tween-80 109 % of control

CCOP(=S)(N/N=C1/C2(C)CCC(C2)C1(C)C)OCC (stereo not drawn)
inactive: [16] 97 % of control | [17] 97 % of control | dose: 400.0 mg/kg/injection, schedule: Q01DX001 (ip), vehicle: saline 91 % of control

O=C(O)/C=C(\Cl)CC(=O)O
inactive: [16] 102 % of control | [17] 96 % of control

CCOC(=O)c1ccc(OC(=O)Nc2ccc(Cl)c([N+](=O)[O-])c2)cc1
inactive: [10] 94 % of control | [11] 90 % of control | [7] 100 % of control | [12] 92 % of control | [8] 94 % of control

O=C(O)c1cccnc1C(=O)O.[Cu+2]
inactive: dose: 3.12 mg/kg/injection, schedule: Q01DX009 (ip), vehicle: Klucel (hydroxypropylcellulose) (HPC) 107 % of control | dose: 6.25 mg/kg/injection, schedule: Q01DX009 (ip), vehicle: Klucel (hydroxypropylcellulose) (HPC) 94 % of control | dose: 6.25 mg/kg/injection, schedule: Q04DX003 (ip), vehicle: Klucel (hydroxypropylcellulose) (HPC) 94 % of control and 95 % of control | dose: 12.5 mg/kg/injection, schedule: Q01DX001 (ip), vehicle: other 108 % of control | [13] 92 % of control | [14] 101 % of control and 97 % of control | dose: 25.0 mg/kg/injection, schedule: Q01DX001 (ip), vehicle: other 89 % of control | [15] 95 % of control
